Three compounds from patent EP1268431B1 (Wyeth, priority 2000, dated 2001) can be followed below.

pIC50: −log10 of the molar value.

One experiment has as its target T1, Raf-1 (c-Raf) (Homo sapiens, UniProt P04049).
T1 construct: Sf9 insect cell lysate containing full length 6his-tagged recombinant human c-Raf; 6his; host or cells: Sf9 insect cells (c-Raf, used as lysate); E. coli (GST-MEK1, GST-MAPK)
As to the kind of experiment: Raf1 Kinase Cascade Assay. Type of experiment: biochemical. The protocol: (Specific Activity: -200U/ml). Human Non-active Mek-1-GST and human GST-MAP kinase (recombinant proteins produced in E. coli).
• Assay Dilution Buffer (ADB); 20mM MOPS, pH 7.2, 25mM β-glycerol phosphate, 5mM EGTA, 1mM sodium orthovanadate, 1mM dithiothreitol. • Magnesium/ATP Cocktail: 500µM cold ATP and 75 mM magnesium chloride in ADB. • Active Kinase: Human Active c-Raf: Use at 0.4U per assay point. • Non-active GST-MEK1: Use at 0.1 µg per assay point. • Non-active GST-p42 MAP Kinase: Use at 1.0 µg per assay point.
• TBST - Tris (50 mM, pH 7.5), NaCl (150 mM), Tween-20 (0.05 %) • Superblock (Pierce) • Anti-GST Ab (Pharmacia) • Anti-Phospho MAPK (Sigma) • Anti-Mouse Ab / Europium conjugate (Wallac)
IC50 determinations - done on compounds from single point assays with >80% inhibition. Typically Raf-1 assay is run at compound concentrations from 10 µM to 30 nM in half log dilutions. (% inhibition is determined for each compound concentration).

The test system of experiment [1] is Human adenocarcinoma cell line LoVo. The experiment is described as follows: Cell Based Screen for Inhibitors of Raf Kinase, LoVo cells. The note with it: four days, SRB.
The subject of experiment [2] is human adenocarcinoma cell line CaCo-2. As to the kind of experiment: Cell Based Screen for Inhibitors of Raf Kinase, CaCo-2 cells. The settings on record: CaCo-2, four days, SRB.

T1 sequence (P04049 whole entry): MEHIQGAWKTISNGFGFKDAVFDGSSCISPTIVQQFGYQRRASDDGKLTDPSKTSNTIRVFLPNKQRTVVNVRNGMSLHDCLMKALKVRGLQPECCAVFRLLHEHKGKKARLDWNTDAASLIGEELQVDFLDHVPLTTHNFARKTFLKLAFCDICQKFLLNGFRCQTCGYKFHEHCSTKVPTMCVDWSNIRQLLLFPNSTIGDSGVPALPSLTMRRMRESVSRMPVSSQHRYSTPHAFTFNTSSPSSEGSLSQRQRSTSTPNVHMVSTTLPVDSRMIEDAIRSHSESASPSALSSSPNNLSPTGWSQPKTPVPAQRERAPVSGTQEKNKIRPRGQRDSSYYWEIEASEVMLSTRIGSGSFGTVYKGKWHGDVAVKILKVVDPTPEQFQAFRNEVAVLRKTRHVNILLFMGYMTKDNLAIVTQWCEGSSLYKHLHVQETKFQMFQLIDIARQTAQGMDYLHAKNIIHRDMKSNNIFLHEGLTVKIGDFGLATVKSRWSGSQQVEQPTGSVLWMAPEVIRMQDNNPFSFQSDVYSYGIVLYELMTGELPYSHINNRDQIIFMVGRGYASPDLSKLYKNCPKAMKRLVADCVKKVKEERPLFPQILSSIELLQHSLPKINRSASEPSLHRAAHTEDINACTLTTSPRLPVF

Regarding `Cn1ccnc1Sc1ccc(Nc2c(C#N)cnc3cc(-c4ccc(CN5CCNCC5)cc4)ccc23)cc1Cl` [Example 97, 4-({3-Chloro-4-[(1-methyl-1H-imidazol-2-yl)sulfanyl]phenyl}amino)-7-[4-(1-piperazinylmethyl)phenyl]-3-quinolinecarbonitrile], the values for the pIC50 (against Raf-1 (c-Raf); in experiment [1]; in experiment [2]) were 7.80, 7.48 and less than 6.00, respectively.
On the same counts, the results for `Cn1ccnc1Sc1ccc(Nc2c(C#N)cnc3cc(-c4ccc(CN5CCOCC5)cc4)ccc23)cc1Cl` [Example 138] are 8.25, 8.21 and 6.09.
For `Cn1ccnc1Sc1ccc(Nc2c(C#N)cnc3cc(-c4cnc(N5CCOCC5)nc4)ccc23)cc1Cl` [Example 191, 4-{3-chloro-4-[(1-methyl-1H-imidazol-2-yl)sufanyl]anilino}-7-[2-(4-morpholinyl)-5-pyrimidinyl]-3-quinolinecarbonitrile], in that order: 9.00, 7.52 and less than 5.00.

As a reminder, the pIC50 is the negative decadic logarithm of the IC50, by convention in mol/L. A higher pIC50 goes with a small IC50.
